Read-outs that look alike come from different tables or passages of the source.
Experiments:
MV4-11 cells = experiment: Inhibition of proliferation of MV4-11 cells (CCK-8); format: cell-based; conditions: Homo sapiens, 72 h, mean±standard deviation of two independent tests
Method: (§1) 12000 g of compounds were centrifuged for 5 min, DMSO was added to make a 10^−2M stock solution, vortexed uniformly and sonicated for 10 min for standby application, and stored at −40° C. The compounds were diluted from the stock solution with saline to 10 times the concentration to be tested (concentration of DMSO in the system being no more than 0.5%) during the test.
(§2) The inhibitory effect of the compounds on the proliferation of MV4-11 cells was detected using a CCK-8 cell counting kit (Dojindo). The specific steps are as follows: the MV4-11 cells in logarithmic growth phase were seeded into a 96-well culture plate at a suitable density in 90 μL/well, cultured overnight, compounds at different concentrations were then added and acted on cells for 72 hr, and the solvent control group (negative control) was set up. The effect of the compounds on cell proliferation was detected using a CCK-8 cell counting kit (Dojindo) after the compounds had acted on the cells for 72 h. 10 μL of CCK-8 reagent was added to each well, same was placed in an incubator at 37° C. for 2-4 hours, and the reading from the full-wavelength microwell plate ELIASA SpectraMax 190 was performed with a wavelength of 450 nm.
(§3) IC50 value was calculated using a software included with ELIASA by the four-parameter regression.
(§4) IC50 for the inhibition of the compounds on each stain of cells was derived from two independent repeated tests, and the results are shown as the mean±standard deviation.

Molm-13 cells = experiment: Inhibition of proliferation of Molm-13 cells (CCK-8); format: cell-based; conditions: Homo sapiens, 72 h, mean±standard deviation of two independent tests
Method: [Worded in the source for another cell line; this cell line is reported under the same test.] as §1, §2, §3, §4

[1] = molecular target: T1, FLT-3 kinase domain recombinant protein (Homo sapiens, UniProt P36888); experiment: Inhibition rate on FLT3 kinase (ELISA); format: biochemical; conditions: two values per compound
T1 construct: 50 μL FLT-3 kinase domain recombinant protein diluted with reaction buffer to initiate the reaction
T1 sequence (P36888 610-943 limits assumed): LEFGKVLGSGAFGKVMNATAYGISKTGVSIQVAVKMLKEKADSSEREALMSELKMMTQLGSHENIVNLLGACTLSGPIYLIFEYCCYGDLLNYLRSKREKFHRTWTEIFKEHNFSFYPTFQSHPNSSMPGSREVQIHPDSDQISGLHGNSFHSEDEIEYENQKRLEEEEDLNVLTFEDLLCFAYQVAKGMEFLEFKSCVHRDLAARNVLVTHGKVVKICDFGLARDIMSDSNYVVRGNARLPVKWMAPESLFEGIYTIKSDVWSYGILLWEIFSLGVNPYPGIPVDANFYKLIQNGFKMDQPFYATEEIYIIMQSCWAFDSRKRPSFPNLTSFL
Method: Conventional enzyme-linked immunosorbent assay (ELISA) method is used, and the specific steps are as follows
as §1, with “12,000 g” for “12000 g”, “with DMSO” for “with saline”, “to 100” for “to 10”, “being 1%)” for “being no more than 0.5%)”
1. The enzyme reaction substrate Poly (Glu, Tyr) 4:1 was diluted to 20 μg/mL with potassium-free PBS (10 mM sodium phosphate buffer, 150 mM NaCl, pH 7.2-7.4), the ELISA plate was coated with same in 125 μL/well, and reacted at 37° C. for 12-16 hours, the liquid in wells was discarded, the plate was washed three times, for 5 minutes each time, with T-PBS (potassium-free PBS with 0.1% Tween-20, 200 μL/well), and the ELISA plate was dried in an oven at 37° C. for 1-2 hours.
2. To each well were added 49 μL of ATP solution diluted with reaction buffer (50 mM HEPES pH 7.4, 50 mM MgCl2, 0.5 mM MnCl2, 0.2 mM Na3VO4, 1 mM DTT), 1 μL of compounds to be tested, and 50 μL FLT-3 kinase domain recombinant protein diluted with reaction buffer to initiate the reaction (two ATP-free control wells are required for each experiment). Subject to a shaker (100 rpm) at 37° C. and reacted for 1 hour. The liquid in wells was discarded, and the plate was washed three times with T-PBS.
(§5) 3. Antibody PY99 diluent (the antibody was diluted in 1:500 with T-PBS which contains 5 mg/mL BSA) was added in 100 μL/well, subjected same to a shaker at 37° C. and reacted for 0.5 hour. The liquid in wells was discarded, and the plate was washed three times with T-PBS.
as §5, with “4. Horseradish peroxidase labeled goat anti-mouse secondary antibody” for “3. Antibody PY99”, “1:2000” for “1:500”, “mg/ml” for “mg/mL”
5. 2 mg/ml of OPD developing solution (diluted with 0.1 M citric acid-sodium citrate buffer which contains 0.03% H2O2 (pH=5.4)) was added in 100 μL/well, and reacted at 25° C. in the dark for 1-10 minutes.
6. 2 M H2SO4 was added in 50 μL/well to stop the reaction, and the reading from the wavelength-adjustable microwell plate ELIASA VERSAmax was performed with a wavelength of 490 nm.

[2] = In vivo pharmacokinetic and bioavailability experiments of rats; parameters: species or system SD rats; conditions: for Cmax: read-out: Cmax
Method: Pharmacokinetic and bioavailability experiments of rats. SD rats were administered orally (25 mg/kg) and intravenously (2.5 to 5 mg/kg) at a single dose. Animal blood samples were taken at appropriate time points after administration, heparin was added as anticoagulant, and same were centrifuged at 8000 rpm/min for 6 minutes, the supernatant was then taken and stored at −20° C. for HPLC-MS analysis. The proteins in blood samples were precipitated with acetonitrile at 12000 rpm for 10 min, and the supernatant was used for HPCL-MS analysis. Data were fit using DAS2.0 to obtain compartmental model and non-compartmental model parameters, respectively. The oral bioavailability of each compound was calculated according to AUC data.

AXL kinase = molecular target: T2, AXL kinase (Homo sapiens, UniProt P30530); experiment: IC50 test on AXL kinase (Z′-LYTE FRET kinase activity detection); format: biochemical; conditions: for IC50: Z′-LYTE FRET peptide assay, 1 h reaction; for inhibitory activity on AXL kinase: competitive experiment with ATP, in words
T2 construct: purchased Invitrogen PV4803
T2 sequence (P30530 26-894): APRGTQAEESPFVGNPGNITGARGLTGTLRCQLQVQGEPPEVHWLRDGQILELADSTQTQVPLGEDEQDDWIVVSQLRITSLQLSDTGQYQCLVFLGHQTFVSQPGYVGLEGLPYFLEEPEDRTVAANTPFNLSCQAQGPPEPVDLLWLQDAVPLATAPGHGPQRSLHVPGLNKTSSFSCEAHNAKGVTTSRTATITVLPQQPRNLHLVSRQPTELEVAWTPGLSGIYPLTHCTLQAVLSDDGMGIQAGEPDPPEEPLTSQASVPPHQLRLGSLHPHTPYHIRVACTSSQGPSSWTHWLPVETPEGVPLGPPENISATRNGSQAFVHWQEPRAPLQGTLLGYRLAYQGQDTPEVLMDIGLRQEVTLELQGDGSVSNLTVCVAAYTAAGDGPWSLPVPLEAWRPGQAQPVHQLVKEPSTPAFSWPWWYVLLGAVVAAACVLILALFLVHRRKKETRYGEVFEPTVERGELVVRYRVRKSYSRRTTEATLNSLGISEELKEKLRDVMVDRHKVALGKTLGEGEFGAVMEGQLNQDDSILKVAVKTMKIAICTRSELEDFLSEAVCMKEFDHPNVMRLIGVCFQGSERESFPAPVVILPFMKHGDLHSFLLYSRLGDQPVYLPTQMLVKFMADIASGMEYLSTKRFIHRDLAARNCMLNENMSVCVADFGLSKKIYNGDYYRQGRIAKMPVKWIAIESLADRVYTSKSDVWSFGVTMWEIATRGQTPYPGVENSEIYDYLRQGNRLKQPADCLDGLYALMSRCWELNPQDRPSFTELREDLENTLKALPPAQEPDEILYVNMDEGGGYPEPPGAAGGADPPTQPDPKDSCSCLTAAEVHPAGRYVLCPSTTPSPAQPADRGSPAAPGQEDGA
Summary of the method: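 Z′-LYTE FRET readout: after 1 h kinase reaction (AXL, Tyr 2 peptide, ATP, compound dilutions), a 1 h protease step cuts unphosphorylated substrate. Excitation at 400 nm, signals at 445 nm and 520 nm used to derive IC50.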

[3] = Sprague-Dawley, rat, plasma, SD rats, Po, 25 mg/kg single dose
[4] = Sprague-Dawley, rat, plasma, SD rats, iv, 5 mg/kg single dose

## CC(C)(C)c1cc(NC(=O)Nc2ccc(-c3cn4c(n3)sc3cc(OCCN5CCOCC5)ccc34)cc2)no1 [AC220, reference compound]
MV4-11 cells
  IC50: < 2 nM
Molm-13 cells
  IC50: 19.5 ± 2.7 nM

## CCc1ccc2c(c1)c(=O)c(C(=O)Nc1ccc(Oc3ncnc4cc(OCCN5CCCC5)c(OC)cc34)c(F)c1)c(C)n2C [TL4830058, 6-ethyl-N-(3-fluoro-4-((6-methoxy-7-(2-(pyrrolidin-1-yl)ethoxy)quinazolin-4-yl)oxy)phenyl)-1,2-dimethyl-4-oxo-1,4-dihydroquinoline-3-carboxamide]
[1]; compound 10 nM, 0.01 µM
  Inhibition rate (%) against receptor tyrosine kinase FLT-3: 49.4%
[1]; compound 10 nM, read-out: Inhibition rate (%) against receptor tyrosine kinase FLT-3
  inhibition at 0.01 µM: 54.7%
[1]; compound 100 nM, 0.1 µM
  Inhibition rate (%) against receptor tyrosine kinase FLT-3: 75.8%
[1]; compound 100 nM, read-out: Inhibition rate (%) against receptor tyrosine kinase FLT-3
  inhibition at 0.1 µM: 74%
[1]; compound 1000 nM, 1 µM
  Inhibition rate (%) against receptor tyrosine kinase FLT-3: 92.3%
[1]; compound 1000 nM, read-out: Inhibition rate (%) against receptor tyrosine kinase FLT-3
  inhibition at 1 µM: 95.2%
[2]; SD rats, hydrochlorides, in words
  pharmacokinetic parameter, overall judgement: appropriate pharmacokinetic parameter
[2]; Sprague-Dawley, rat, plasma, po, 25 mg/kg, read-out: F (oral bioavailability)
  bioavailability: 28%
[2]; [3]
  AUC(0-inf): 50300 ng·h/mL
  AUC(0-t): 39700 ng·h/mL
  half-life: 11 h
  Cmax: 4090 ng/mL
[2]; [4]
  AUC(0-inf): 28700 ng·h/mL
  AUC(0-t): 28400 ng·h/mL
  clearance: 3 mL/min/kg
  half-life: 4.05 h
  Cmax: 13300 ng/mL
AXL kinase
  IC50: 8 nM

## CCc1ccc2c(c1)c(=O)c(C(=O)Nc1ccc(Oc3ncnc4cc(OCCCOC)c(OC)cc34)c(F)c1)c(C)n2C [TL4830073, 6-ethyl-N-(3-fluoro-4-((6-methoxy-7-(3-methoxypropoxy)quinazolin-4-yl)oxy)phenyl)-1,2-dimethyl-4-oxo-1,4-dihydroquinoline-3-carboxamide]
AXL kinase
  IC50: 5 nM
  inhibitory activity on AXL kinase: strong inhibitory activity
Molm-13 cells
  IC50: 38.6 ± 18 nM

## CCc1ccc2c(c1)c(=O)c(C(=O)Nc1ccc(Oc3ncnc4cc(OC)c(OC)cc34)c(F)c1)c(CC)n2C [TL4830074, N-(4-(6,7-dimethoxyquinazolin-4-yloxy)-3-fluorophenyl)-2,6-diethyl-1-methyl-4-oxo-1,4-dihydroquinoline-3-carboxamide]
MV4-11 cells
  IC50: > 500 nM
AXL kinase
  IC50: 9 nM
  inhibitory activity on AXL kinase: strong inhibitory activity
Molm-13 cells
  IC50: > 300 nM
